Values of other authors, collected in patent US20240415829A1, “METHODS AND COMPOSITIONS FOR THE TREATMENT OF DRUG OVERDOSE” (priority 2023, published 2024).

Columns and labels:
[1] = human clinical trials
[2] = xylazine 0.15 mg/kg, sheep 58-69 kg
[3] = results from other studies; individuals with OUD, tobacco use disorder, AUD

Cc1cccc(C)c1NC1=NCCCS1 [xylazine]
adverse effects leading to termination of human trials [1]: severe hypotension and central nervous system (CNS) depressant effects | sedation, respiration, blood pressure and heart rate effects [2]: significant sedation/decreased respiration and decreased blood pressure/heart rate

COC(=O)[C@@H]1[C@H]2C[C@H]3c4[nH]c5ccccc5c4CCN3C[C@@H]2CC[C@@H]1O [yohimbine]
doses supported for safe use in humans [3]: up to 60 mg
